From US20240261292A1, “COMBINATION THERAPIES” (Janssen Pharmaceutica NV, priority 2021, published 2024) come the findings set out here.

A short description of data set [1]: Mouse PK (in vivo T1/2 and oral bioavailability). The conditions noted are these: fasted male CD-1 mice, single IV 0.5 or 1.0 mg/kg; formulating agent: A HP-β-CD, A3 Pyrogen free water. The method, then: 3) Mouse PK (In Vivo T1/2 and Oral Bioavailability)
In vivo pharmacokinetics (PK) were assessed in fasted male CD-1 mice (age 6-8 weeks) following a single intravenous (IV, 0.5 or 1.0 mg/kg administered at 2.5 ml/kg) or oral (PO, 5 mg/kg administered at 10 ml solution/kg) dose of test article formulated in a 20% (w:vol) HP-β-CD solution or in Pyrogen free water.
Plasma and/or whole blood samples were collected from the dorsal metatarsal vein at desired timepoints via serial capillary microsampling (approx. 0.03 mL) using EDTA as an anticoagulant. Concentrations of compound in the plasma and blood samples were analyzed using a qualified LC-MS/MS method. In silico analysis of main pharmacokinetic parameters was performed using WinNonlin (Phoenix™, version 6.1) or similar software.)

Data set [2] has as its system iCell Cardiomyocytes2 (hSC-CMs). Put plainly: Ca2+-fluorescence assay in human pluripotent stem cell-derived cardiomyocytes (CTCM human). The class given is cell-based. More on the design: key to Hazard Scoring Color @ 0.1 μM / Hazard Scoring Color @ 0.2 μM / Hazard Scoring Color @ 0.5 μM / Hazard Scoring Color @ 1 μM / Hazard Scoring Color @ 2.5 μM / Hazard Scoring Color @ 5 μM / Hazard Scoring Color @ 0.3 μM / Hazard Scoring Color @ 3 μM / Hazard Scoring Color @ 10 μM / Hazard Scoring Color @ 30 μM: Green: No concern; Yellow: Low concern; Red: High concern; Black: Very high concern due to arrhythmic events. The note with it: 30 min. On the procedure:
7) Cardio-Electrophysiological Effects of the Testing Compounds in Synchronously Beating Human Pluripotent Stem Cell-Derived Cardiomyocytes (hSC-CMs) Using a Ca^2+-Fluorescence Assay (CTCM Human)
Compounds were tested in the 96-well plates.
Compounds were tested at 0.1 μM, 0.2 μM, 0.5 μM, 1 μM, 2.5 μM and 5 μM (n=4 per dose) on Cor.4U®-Cardiomyocytes or on iCell® Cardionyocytes2.
Alternatively, compounds were tested at 0.1 μM, 0.3 μM; 1 μM, 3 μM, 10 μM and 30 μM (n=4 per dose) mostly on iCell® Cardiomyocytes2.
Vehicle control: Dimethylsulfoxide (DMSO). The solutions of the compound in DMSO or its solvent (final concentration of 0.1% DMSO; n=8).
Tested compounds were dissolved in DMSO at 1000-fold the intended concentrations. A compound “mother-plate” was made, containing the test compounds and positive and negative controls at 1000-fold the final concentrations. At the experiment day, these stock solutions were diluted with Tyrode (Sigma), supplemented with 10 mM HEPES (Gibco), to 2-fold the intended concentration (in round bottom compound plates). Final DMSO concentration in test solutions and vehicle control was 0.1%.
hSC-CMs (Cor.4U® Cardiomyocytes) were obtained from CDI (Ncardia, Germany). Cells are pre-plated and seeded in fibronectin-coated 96-well plates at a density suited to form a monolayer and maintained in culture in a stage incubator (37° C., 5% CO2), according to the instructions of the cell provider.
Second line hSC derived cardiomyocyte called iCell® Cardiomyocytes2 were purchased from FUJIFILM Cellular Dynamics (USA). The experiments with test drugs are carried out 5 to 7 days after plating the cells onto the plate to have a living, beating monolayer of hiPSC-derived cardiomyocytes. The beating monolayer in 96-well-plates are normally taken from 2 Vials of frozen iCell® Cardiomyocytes2 (≈5 million cells/vial), which will be plated onto three 96-well plates (≈50K/well).
At least one hour before the start of the experiments the normal cell medium was replaced with Tyrode solution with Calcium dye (see below).
Cal 520 dye (AAT Bioquest) was dissolved in 11 ml of Tyrode supplemented with 10 mM HEPES and warmed up to 37 C before adding to the cells.
35 μl cell culture medium was removed from each well and replaced with 35 μl of pre-warmed Cal 520 dye solution and cell plate was incubated for 45 min at 37° C./5% CO2. Cells were incubated for 5 min at 37° C.
Spontaneous electrical activity is recorded, using Cal520™ (AAT Bioquest) calcium fluorescence-dye signalling. This dye integrates the total intracellular calcium activity over the whole well. A bottle of Ca1520 dye (50 μg, MW: 1103/mol) is dissolved with 50 μl DMSO as a stock solution of 0.9 mM. 50 μL of the stock solution of the dye was added to 10 ml Tryodes solution to have dye concentration of 4.5 μM. Subsequently, 35 μl of this dye solution was added into each well, to have a final dye concentration of 1.58 μM. The current dye protocol on this CTCM human assay was established recently (Ivan Kopljar et al, Journal of Pharmacological and toxicological methods 2018. 91: 80-86; Lu et al., Tox Sci 2019. 170 (2): 345-356).
Fluorescent signals (Ca^2+ transient morphology) were measured using the Functional Drug Screen System (FDSS/μCell; Hamamatsu, Japan) and the recordings were subsequently analyzed off-line, using appropriate software e.g., Notocord.
The cell plate was loaded into the FDSS/μCell for a test run: Ca^2+ transients were measured for 4 minutes to check for synchronous beating of the cardiomyocytes in each well. All 96 wells were measured simultaneously (sampling interval: 0.06 s, short exposure time: 10 ms; excitation wavelength 480 nm; emission wavelength 540 nm; FDSS/μCell warmed to 37° C.).
During the compound addition step, 100 μl of the respective double-concentrated test solutions was pipetted into each well simultaneously.
Data were analyzed off-line using appropriate software e.g., Notocord-Hem (version 4.3). […]

Another data set concerns OCI-AML3 tumors. Put plainly: Efficacy study in disseminated OCI-AML3 model. The class given is in vivo, SCID beige mice. The method, then: Day 0 is the day of tumor cell implantation and study initiation.
Median survival was determined utilizing Kaplan-Meier survival analysis.

Where [3] appears, read: iCell Cardiomyocytes2 (Table 11).
[4] abbreviates: iCell Cardiomyocytes2 (Table 12).

Counter-ions that a name gives are not always drawn.

Consider `CCN(C(=O)c1cc(F)ccc1Oc1nncnc1N1CCC2(C1)CN([C@H](CCCN(C)CCOC)C(C)C)C2)C(C)C` [Compound A3, (R)-N-ethyl-5-fluoro-N-isopropyl-2-((5-(2-(6-((2-methoxyethyl) (methyl)amino)-2-methylhexan-3-yl)-2,6-diazaspiro[3.4]octan-6-yl)-1,2,4-triazin-6-yl)oxy) benzamide oxalate], for which the “In vivo T1/2 (IV)” value in data set [1] amounted to 9.0 h. The “Hazard Scoring Color @ 0.1 μM” value in data set [2] (setting [3]) was “Green”. The “Hazard Scoring Color @ 0.2 μM” value in data set [2] (0.2 μM, iCell Cardiomyocytes2 (Table 11)) is “Green”. Further, the “Hazard Scoring Color @ 0.5 μM” value in data set [2] (0.5 μM, iCell Cardiomyocytes2 (Table 11)) is on record as “Green”. Moreover, the “Hazard Scoring Color @ 1 μM” value in data set [2] (setting [3]) is “Green”. In addition, the “Hazard Scoring Color @ 2.5 μM” value in data set [2] (2.5 μM, iCell Cardiomyocytes2 (Table 11)) is reported as “Green”. In data set [2] (5 μM, iCell Cardiomyocytes2 (Table 11)), the “Hazard Scoring Color @ 5 μM” value was “Green”. Further, the “median days of survival” value was determined as 75.5 days in the data set with OCI-AML3 tumors (30 mg/kg PO daily for 28 days), 58.5 days in the data set with OCI-AML3 tumors (50 mg/kg PO daily for 28 days) and 75 days in the data set on OCI-AML3 tumors (100 mg/kg PO daily for 28 days).

With `CCN(C(=O)c1cc(F)ccc1Oc1nncnc1N1CCC2(C1)CN([C@H](CCCNCCOC)C(C)C)C2)C(C)C` [Compound 11, (R)-N-ethyl-5-fluoro-N-isopropyl-2-((5-(2-(6-((2-methoxyethyl)amino)-2-methylhexan-3-yl)-2,6-diazaspiro[3.4]octan-6-yl)-1,2,4-triazin-6-yl)oxy)benzamide], in data set [2] (setting [4]), the “Hazard Scoring Color @ 0.1 μM” value is reported as “Green” and the “Hazard Scoring Color @ 1 μM” value is recorded as “Green”. Moreover, the “Hazard Scoring Color @ 0.3 μM” value in data set [2] (0.3 μM, iCell Cardiomyocytes2 (Table 12)) was “Green”. The “Hazard Scoring Color @ 3 μM” value in data set [2] (3 μM, iCell Cardiomyocytes2 (Table 12)) is “Green”. The “Hazard Scoring Color @ 10 μM” value in data set [2] (10 μM, iCell Cardiomyocytes2 (Table 12)) was “Green”. In addition, the “Hazard Scoring Color @ 30 μM” value in data set [2] (30 μM, iCell Cardiomyocytes2 (Table 12)) is recorded as “Green”.
